Test results taken from patent US10058540B2, “2-amino-5,5-difluoro-6-(fluoromethyl)-6-phenyl-3,4,5,6-tetrahydropyridines as BACE1 inhibitors” (H. Lundbeck A/S, priority 2014, dated 2018).

What was measured:
BACE1 [1] = target: T1, BACE1 (Homo sapiens (Human), UniProt P56817); experiment: BACE1 binding assay (SPA-based, radioligand); conditions: pH 4.5, Ki=IC50/(1+L/Kd)
Method: The binding assay was performed as SPA-based assay using a biotinylated form of human BACE1 recombinantly expressed and subsequently purified from Freestyle HEK293 cells. The binding assay was run in a 50 mM sodium acetate buffer, pH 4.5 containing 50 mM NaCl and 0.03% Tween-20 in white clear bottom 384 plates (Corning #3653). 10 nM (final concentration) radioligand ([^3H]-N-((1S,2R)-1-benzyl-3-cyclopropylamino-2-hydroxy-propyl)-5-(methanesulfonyl-methyl-amino)-N-((R)-1-phenyl-ethyl)-isophthalamide) (TRQ11569 purchased from GE Healthcare) was mixed with test compound at a given concentration, 6 nM (final concentration) human BACE1 and 25 μg Streptavidin coated PVT core SPA beads (RPNQ0007, GE Healthcare Life Sciences) in a total volume of 40 μl. Several concentrations of each test compound were tested in the assay for IC50 determination. The plates were incubated for one hour at room temperature and counted in a Wallac Trilux counter. Total and non-specific binding were determined using buffer and 1 μM (final concentration) of the high affinity BACE1 reference inhibitor (S)-6-[3-chloro-5-(5-prop-1-ynyl-pyridin-3-yl)-thiophen-2-yl]-2-imino-3,6-dimethyl-tetrahydro-pyrimidin-4-one, respectively. For each test compound, a IC50 value (the concentration mediating 50% inhibition of the specific binding of the radioligand) was determined from concentration-response curve and used to calculate the Ki from the equation Ki=IC50/(1+L/Kd), where L and Kd are the final concentration of the radioligand used in the assay and the dissociation constant of the radioligand, respectively. The Kd of the radioligand was determined from saturation binding experiments.

BACE1 [2] = target: T1, BACE1; experiment: BACE1 efficacy assay (FRET-based, commercial BACE1 kit); assay type: biochemical; conditions: 10 μM test compound
Method: The efficacy assay was performed as a FRET-based assay using a commercially available BACE1 kit (Life Technologies, P2985). 2 μl test compound at 10 μM (final concentration) and 15 μl BACE1 enzyme from the kit (final concentration 3 nM) were preincubated for 15 minutes at room temperature before addition of 15 μl of substrate from the kit (250 nM final concentration) and incubated for additional 90 minutes at room temperature. The assay plate was subsequently read in a Pherastar (Ex540/Em590). The enzyme activity observed in presence of test compound were normalized to the enzyme activity observed in presence of buffer and 10 μM (final concentration) of the high affinity BACE1 reference inhibitor (S)-6-[3-Chloro-5-(5-prop-1-ynyl-pyridin-3-yl)-thiophen-2-yl]-2-imino-3,6-dimethyl-tetra-hydropyrimidin-4-one, respectively. The efficacy of the test compounds was evaluated at 10 μM (final concentration) and defined as the percent inhibition of the enzyme activity using the equation % inhibition=100%−normalized enzyme activity in percent.

P-gp (MDR1) = experiment: MDCK-MDR1 assay (permeability / Pgp efflux); assay type: in vitro ADME; conditions: dog, Papp BA/Papp AB, Pgp substrate when ≥2
Method: The permeability of the test compounds was assessed in MDCK-MDR1 cells that were cultured to confluency (4-6 days) in a 96 transwell plate. Test compounds were diluted with the transport buffer (HBSS+1% BSA) to a concentration of 0.5 μM and applied to the apical or basolateral side of the cell monolayer. Permeation of the test compounds from A to B direction or B to A direction was determined in triplicate over a 60-minute incubation time at 37° C. and 5% CO2 with a relative humidity of 95%. Test compounds were quantified by LC-MS/MS analysis based on the peaks area ratios of analyte/IS in both the receiver and donor wells of the transwell plate.
The apparent permeability coefficient Papp (cm/s) was calculated using the equation: Papp=(dCr/dt)×Vr/(A×C0) Where dCr/dt is the cumulative concentration of compound in the receiver chamber as a function of time (μM/s); Vr is the solution volume in the receiver chamber (0.05 mL on the apical side; 0.25 mL on the basolateral side); A is the surface area for the transport, i.e. 0.0804 cm^2 for the area of the monolayer; C0 is the initial concentration in the donor chamber (μM).
Compounds are classified Pgp substrates when efflux ratio (Papp BA/Papp AB) is ≥2.

T1 sequence (P56817 46-501): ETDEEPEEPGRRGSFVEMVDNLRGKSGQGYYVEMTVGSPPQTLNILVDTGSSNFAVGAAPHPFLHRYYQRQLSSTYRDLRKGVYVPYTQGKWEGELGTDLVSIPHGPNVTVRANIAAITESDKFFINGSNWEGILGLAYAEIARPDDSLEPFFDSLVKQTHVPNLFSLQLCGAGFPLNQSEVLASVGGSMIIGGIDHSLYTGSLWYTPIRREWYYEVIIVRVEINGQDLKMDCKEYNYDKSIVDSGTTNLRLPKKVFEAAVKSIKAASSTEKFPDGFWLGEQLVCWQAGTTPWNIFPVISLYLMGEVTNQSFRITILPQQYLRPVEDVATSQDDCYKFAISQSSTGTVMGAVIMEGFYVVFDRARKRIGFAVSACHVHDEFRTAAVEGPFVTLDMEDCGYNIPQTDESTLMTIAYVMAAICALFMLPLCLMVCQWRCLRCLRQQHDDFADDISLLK

SMILES: NC1=N[C@](CF)(c2cc(NC(=O)c3ccc(F)cn3)cc(F)c2F)C(F)(F)CC1 [Compound 12, (S)-N-(3-(6-amino-3,3-difluoro-2-(fluoromethyl)-2,3,4,5-tetrahydropyridin-2-yl)-4,5-difluorophenyl)-5-fluoropicolinamide]
- Ki (BACE1 [1]): 84 nM
- inhibition at 10 µM (BACE1 [2]): 101%
- efflux ratio at 60 min, 0.5 μM (P-gp (MDR1)): 1.11

SMILES: NC1=N[C@](CF)(c2cc(NC(=O)c3ccn(C(F)F)n3)ccc2F)C(F)(F)CC1 [Compound 4, (S)-N-(3-(6-amino-3,3-difluoro-2-(fluoromethyl)-2,3,4,5-tetrahydropyridin-2-yl)-4-fluorophenyl)-1-(difluoromethyl)-1H-pyrazole-3-carboxamide]
- Ki (BACE1 [1]): 25 nM
- inhibition at 10 µM (BACE1 [2]): 104%
- efflux ratio at 60 min, 0.5 μM (P-gp (MDR1)): 13.8

SMILES: COc1cnc(C(=O)Nc2ccc(F)c([C@@]3(CF)N=C(N)CCC3(F)F)c2)cn1 [Compound 3, (S)-N-(3-(6-amino-3,3-difluoro-2-(fluoromethyl)-2,3,4,5-tetrahydropyridin-2-yl)-4-fluoro-phenyl)-5-methoxypyrazine-2-carboxamide]
- Ki (BACE1 [1]): 13 nM
- inhibition at 10 µM (BACE1 [2]): 104%
- efflux ratio at 60 min, 0.5 μM (P-gp (MDR1)): 2.84

SMILES: N#Cc1ccc(C(=O)Nc2cc(F)c(F)c([C@@]3(CF)N=C(N)CCC3(F)F)c2)nc1 [Compound 14, (S)-N-(3-(6-amino-3,3-difluoro-2-(fluoromethyl)-2,3,4,5-tetrahydropyridin-2-yl)-4,5-difluorophenyl)-5-cyanopicolinamide]
- Ki (BACE1 [1]): 23 nM
- inhibition at 10 µM (BACE1 [2]): 103%
- efflux ratio at 60 min, 0.5 μM (P-gp (MDR1)): 1.81

SMILES: N#Cc1ccc(C(=O)Nc2ccc(F)c([C@@]3(CF)N=C(N)CCC3(F)F)c2)nc1 [Compound 6, (S)-N-(3-(6-amino-3,3-difluoro-2-(fluoromethyl)-2,3,4,5-tetrahydropyridin-2-yl)-4-fluoro-phenyl)-5-cyanopicolinamide]
- Ki (BACE1 [1]): 20 nM
- inhibition at 10 µM (BACE1 [2]): 103%
- efflux ratio at 60 min, 0.5 μM (P-gp (MDR1)): 2.07

SMILES: Cc1nc(C(=O)Nc2ccc(F)c([C@@]3(CF)N=C(N)CCC3(F)F)c2)co1 [Compound 7, (S)-N-(3-(6-amino-3,3-difluoro-2-(fluoromethyl)-2,3,4,5-tetrahydropyridin-2-yl)-4-fluoro-phenyl)-2-methyloxazole-4-carboxamide]
- Ki (BACE1 [1]): 32 nM
- inhibition at 10 µM (BACE1 [2]): 96%
- efflux ratio at 60 min, 0.5 μM (P-gp (MDR1)): 4.59

SMILES: NC1=N[C@](CF)(c2cc(NC(=O)c3ccc(Br)cn3)ccc2F)C(F)(F)CC1 [Compound 19, (S)-N-(3-(6-amino-3,3-difluoro-2-(fluoromethyl)-2,3,4,5-tetrahydropyridin-2-yl)-4-fluorophenyl)-5-bromopicolinamide]
- Ki (BACE1 [1]): 11 nM
- efflux ratio at 60 min, 0.5 μM (P-gp (MDR1)): 1.59

SMILES: [2H]C([2H])([2H])Oc1ccc(C(=O)Nc2ccc(F)c([C@@]3(CF)N=C(N)CCC3(F)F)c2)nc1 [Compound 18, (S)-N-(3-(6-amino-3,3-difluoro-2-(fluoromethyl)-2,3,4,5-tetrahydropyridin-2-yl)-4-fluorophenyl)-5-(methoxy-d3)picolinamide]
- Ki (BACE1 [1]): 25 nM
- inhibition at 10 µM (BACE1 [2]): 109%

SMILES: [2H]C([2H])([2H])Oc1ccc(C(=O)Nc2cc(F)c(F)c([C@@]3(CF)N=C(N)CCC3(F)F)c2)nc1 [Compound 16, (S)-N-(3-(6-amino-3,3-difluoro-2-(fluoromethyl)-2,3,4,5-tetrahydropyridin-2-yl)-4,5-difluorophenyl)-5-(methoxy-d3)picolinamide]
- Ki (BACE1 [1]): 21 nM
- inhibition at 10 µM (BACE1 [2]): 106%
- efflux ratio at 60 min, 0.5 μM (P-gp (MDR1)): 1.1

SMILES: COc1cnc(C(=O)Nc2ccc(F)c([C@@]3(CF)N=C(N)CCC3(F)F)c2)nc1 [Compound 8, (S)-N-(3-(6-amino-3,3-difluoro-2-(fluoromethyl)-2,3,4,5-tetrahydropyridin-2-yl)-4-fluoro-phenyl)-5-methoxypyrimidine-2-carboxamide]
- Ki (BACE1 [1]): 29 nM
- efflux ratio at 60 min, 0.5 μM (P-gp (MDR1)): 23.4

SMILES: NC1=N[C@](CF)(c2cc(NC(=O)c3ccc(Cl)cn3)ccc2F)C(F)(F)CC1 [Compound 1, (S)-N-(3-(6-amino-3,3-difluoro-2-(fluoromethyl)-2,3,4,5-tetrahydropyridin-2-yl)-4-fluorophenyl)-5-chloropicolinamide]
- Ki (BACE1 [1]): 5.7 nM
- inhibition at 10 µM (BACE1 [2]): 104%
- efflux ratio at 60 min, 0.5 μM (P-gp (MDR1)): 1.75

SMILES: NC1=N[C@](CF)(c2cc(NC(=O)c3coc(C(F)F)n3)ccc2F)C(F)(F)CC1 [Compound 5, (S)-N-(3-(6-amino-3,3-difluoro-2-(fluoromethyl)-2,3,4,5-tetrahydropyridin-2-yl)-4-fluoro-phenyl)-2-(difluoromethyl)oxazole-4-carboxamide]
- Ki (BACE1 [1]): 15 nM
- inhibition at 10 µM (BACE1 [2]): 102%
- efflux ratio at 60 min, 0.5 μM (P-gp (MDR1)): 7.31

SMILES: Cc1cc(C#N)cnc1C(=O)Nc1cc(F)c(F)c([C@@]2(CF)N=C(N)CCC2(F)F)c1 [Compound 17, (S)-N-(3-(6-amino-3,3-difluoro-2-(fluoromethyl)-2,3,4,5-tetrahydropyridin-2-yl)-4,5-difluorophenyl)-5-cyano-3-methylpicolinamide]
- Ki (BACE1 [1]): 16 nM
- inhibition at 10 µM (BACE1 [2]): 111%
- efflux ratio at 60 min, 0.5 μM (P-gp (MDR1)): 2.21

SMILES: NC1=N[C@](CF)(c2cc(NC(=O)c3ccc(Cl)cn3)cc(F)c2F)C(F)(F)CC1 [Compound 13, (S)-N-(3-(6-amino-3,3-difluoro-2-(fluoromethyl)-2,3,4,5-tetrahydropyridin-2-yl)-4,5-difluorophenyl)-5-chloropicolinamide]
- Ki (BACE1 [1]): 22 nM
- inhibition at 10 µM (BACE1 [2]): 103%
- efflux ratio at 60 min, 0.5 μM (P-gp (MDR1)): 1.11

SMILES: NC1=N[C@](CF)(c2cc(NC(=O)c3cnc(C(F)F)cn3)ccc2F)C(F)(F)CC1 [Compound 9, (S)-N-(3-(6-amino-3,3-difluoro-2-(fluoromethyl)-2,3,4,5-tetrahydropyridin-2-yl)-4-fluoro-phenyl)-5-(difluoromethyl)pyrazine-2-carboxamide]
- Ki (BACE1 [1]): 30 nM
- inhibition at 10 µM (BACE1 [2]): 103%
- efflux ratio at 60 min, 0.5 μM (P-gp (MDR1)): 1.76

SMILES: NC1=N[C@](CF)(c2cc(NC(=O)c3ccc(F)cn3)ccc2F)C(F)(F)CC1 [Compound 2, (S)-N-(3-(6-amino-3,3-difluoro-2-(fluoromethyl)-2,3,4,5-tetrahydropyridin-2-yl)-4-fluoro-phenyl)-5-fluoropicolinamide]
- Ki (BACE1 [1]): 22 nM
- inhibition at 10 µM (BACE1 [2]): 104%
- efflux ratio at 60 min, 0.5 μM (P-gp (MDR1)): 2.6

SMILES: Cc1nc(C(=O)Nc2cc(F)c(F)c([C@@]3(CF)N=C(N)CCC3(F)F)c2)co1 [Compound 10, (S)-N-(3-(6-amino-3,3-difluoro-2-(fluoromethyl)-2,3,4,5-tetrahydropyridin-2-yl)-4,5-difluorophenyl)-2-methyloxazole-4-carboxamide]
- Ki (BACE1 [1]): 55 nM
- inhibition at 10 µM (BACE1 [2]): 102%
- efflux ratio at 60 min, 0.5 μM (P-gp (MDR1)): 3.57
